This is an account of results in ChEMBL document CHEMBL2073960, “Cytotoxic and multidrug resistance reversal activity of a vegetable, 'Anastasia Red', a variety of sweet pepper” (Phytother Res, 2003).

This series addresses ATP-dependent translocase ABCB1 (Homo sapiens, UniProt P08183). Nature of the series: TP_TRANSPORTER: increase in Rhodamine 123 intracellular accumulation in MDR1 transfected L-5178 mouse T-cell lymphoma cells. The class given is functional, cell-based.

ATP-dependent translocase ABCB1, sequence (P08183 whole entry): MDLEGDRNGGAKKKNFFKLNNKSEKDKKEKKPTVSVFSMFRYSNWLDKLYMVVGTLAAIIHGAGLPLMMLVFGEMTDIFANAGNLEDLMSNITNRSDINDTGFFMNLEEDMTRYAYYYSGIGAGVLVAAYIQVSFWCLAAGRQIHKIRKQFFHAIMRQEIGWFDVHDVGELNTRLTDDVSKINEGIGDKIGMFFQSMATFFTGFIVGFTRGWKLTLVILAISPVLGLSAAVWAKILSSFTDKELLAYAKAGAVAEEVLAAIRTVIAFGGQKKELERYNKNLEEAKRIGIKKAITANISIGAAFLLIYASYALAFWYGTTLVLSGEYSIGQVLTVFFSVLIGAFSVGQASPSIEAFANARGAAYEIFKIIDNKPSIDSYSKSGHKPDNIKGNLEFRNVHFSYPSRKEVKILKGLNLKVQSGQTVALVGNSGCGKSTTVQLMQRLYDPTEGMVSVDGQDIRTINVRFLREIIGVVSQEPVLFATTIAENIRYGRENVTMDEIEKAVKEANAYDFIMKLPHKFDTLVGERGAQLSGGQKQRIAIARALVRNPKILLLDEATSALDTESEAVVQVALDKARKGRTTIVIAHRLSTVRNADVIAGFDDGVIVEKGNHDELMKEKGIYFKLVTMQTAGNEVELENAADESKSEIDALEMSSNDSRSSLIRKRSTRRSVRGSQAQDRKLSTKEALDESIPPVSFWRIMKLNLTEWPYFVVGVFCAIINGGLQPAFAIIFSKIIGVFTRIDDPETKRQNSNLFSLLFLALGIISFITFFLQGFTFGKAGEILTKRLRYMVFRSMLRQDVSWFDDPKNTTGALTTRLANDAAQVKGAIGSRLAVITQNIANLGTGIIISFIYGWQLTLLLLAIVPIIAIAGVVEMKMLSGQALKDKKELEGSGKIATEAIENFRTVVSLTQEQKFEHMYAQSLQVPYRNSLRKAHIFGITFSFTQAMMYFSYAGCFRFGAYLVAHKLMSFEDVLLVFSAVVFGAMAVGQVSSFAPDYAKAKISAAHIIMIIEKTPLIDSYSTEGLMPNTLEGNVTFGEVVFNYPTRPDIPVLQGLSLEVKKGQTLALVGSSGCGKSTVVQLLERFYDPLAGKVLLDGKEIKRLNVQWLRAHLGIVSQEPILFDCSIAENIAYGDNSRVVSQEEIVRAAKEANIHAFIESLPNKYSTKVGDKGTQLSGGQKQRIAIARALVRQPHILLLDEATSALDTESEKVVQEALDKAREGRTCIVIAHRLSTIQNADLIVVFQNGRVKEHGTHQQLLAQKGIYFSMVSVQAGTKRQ

In the case of ANASTASIA RED EXTRACTS, the Activity result was “inhibitor [+]”.
